Our source for the IC50 values is patent US8445674B2, “Heterocyclyl compounds” (Hoffmann-La Roche Inc, priority 2009, dated 2013).

Molecules are shown by their SMILES.

This assay addresses T1, human chemokine receptor 2 isoform B (Homo sapiens, UniProt P41597).
T1 construct: host or cells: CHOK1-CCR2B-A5 cells (CHO-K1)
T1 sequence (P41597 1-360 isoform P41597-2): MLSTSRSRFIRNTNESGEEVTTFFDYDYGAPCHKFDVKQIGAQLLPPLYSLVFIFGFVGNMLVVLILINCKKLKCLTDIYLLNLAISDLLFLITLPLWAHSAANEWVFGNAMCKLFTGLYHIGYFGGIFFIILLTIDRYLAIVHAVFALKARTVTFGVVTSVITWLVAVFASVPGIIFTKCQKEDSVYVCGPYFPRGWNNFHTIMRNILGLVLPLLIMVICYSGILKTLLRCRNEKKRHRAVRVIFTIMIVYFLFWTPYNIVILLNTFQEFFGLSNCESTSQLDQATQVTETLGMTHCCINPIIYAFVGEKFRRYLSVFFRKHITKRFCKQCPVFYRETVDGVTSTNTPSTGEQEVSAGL
Description: Calcium mobilization assay (FLIPR, antagonist activity against MCP-1). To be noted: Ca mobilisation assay, CHOK1-CCR2B-A5 cells, inhibition of calcium increase induced by 20 nM MCP-1. The class given is cell-based. The procedure:
Calcium Mobilization Assay
CHOK1-CCR2B-A5 cells (from Euroscreen) stably overexpressing the human chemokine receptor 2 isoform B were cultured in Nutrient Hams F12 medium supplemented with 5% FBS, 100 U/ml penicillin, 100 μg/ml streptomycin, 400 μg/ml G418 and 5 μg/ml puromycin.
For the assay cells were grown overnight in 384-well black clear flat bottom polystyrene plates (Costar) at 37° C. at 5% CO2. After washing with DMEM, 20 mM Hepes, 2.5 mM probenecid, 0.1% BSA (DMEM assay buffer) cells were loaded with 4 μM Fluo-4 in the same DMEM assay buffer for 2 hours at 30° C. Excess dye was removed and cells were washed with DMEM assay buffer. 384-well compound plates were prepared with DMEM assay buffer/0.5% DMSO with or without various concentrations of test compounds. Usually compounds were tested for agonist and antagonist activity.
Test compounds were added to the assay plate and agonist activity was monitored as fluorescence for 80 seconds with a FLIPR (488 nm excitation; 510-570 nm emission; Molecular Devices). After 20-30 min. of incubation at 30° C., 20 nM MCP-1 (R&D; Roche) was added and fluorescence was monitored again for 80 seconds. Increases in intracellular calcium are reported as maximum fluorescence after agonist exposure minus basal fluorescence before exposure. Antagonist activity is indicated as inhibitor concentration required for 50% inhibition of specific calcium increases.
(A change in cytosolic calcium serves as a functional read-out for many receptors and channels.)

Regarding `C[C@H]1C(=O)N(CCCC(=O)N2CCC3(CC3)[C@H](O)C2)CCN1C(=O)Nc1ccc(Cl)c(C(F)(F)F)c1` [Example 32, (S)-4-[4-((S)-4-Hydroxy-6-aza-spiro[2.5]oct-6-yl)-4-oxo-butyl]-2-methyl-3-oxo-piperazine-1-carboxylic acid (4-chloro-3-trifluoromethyl-phenyl)-amide], the IC50 was determined as 5.9 nM.

On to `C[C@H]1C(=O)N(CCCC(=O)N2CCC3(CC3)[C@H](O)C2)CCN1C(=O)Nc1ccc(C(F)(F)F)c(Cl)c1` [Example 33, (S)-4-[4-((S)-4-Hydroxy-6-aza-spiro[2.5]oct-6-yl)-4-oxo-butyl]-2-methyl-3-oxo-piperazine-1-carboxylic acid (3-chloro-4-trifluoromethyl-phenyl)-amide], for which the IC50 stood at 4.4 nM.

Turning to `C[C@H]1C(=O)N(CCCC(=O)N2CCC3(CC3)[C@H](O)C2)CCN1C(=O)Nc1ccc(OC(F)(F)F)c(Cl)c1` [Example 34, (S)-4-[4-((S)-4-Hydroxy-6-aza-spiro[2.5]oct-6-yl)-4-oxo-butyl]-2-methyl-3-oxo-piperazine-1-carboxylic acid (3-chloro-4-trifluoromethoxy-phenyl)-amide], the IC50 was 1.7 nM.

Turning to `C[C@H]1C(=O)N(CCCC(=O)N2CCC3(CC3)[C@H](O)C2)CCN1C(=O)Nc1ccc(Cl)c(OC(F)(F)F)c1` [Example 35, (S)-4-[4-((S)-4-Hydroxy-6-aza-spiro[2.5]oct-6-yl)-4-oxo-butyl]-2-methyl-3-oxo-piperazine-1-carboxylic acid (4-chloro-3-trifluoromethoxy-phenyl)-amide], the IC50 is 4.9 nM.

With `C[C@H]1C(=O)N(CCCC(=O)N2CCC3(CC2)COC3)CCN1C(=O)Nc1cccc(Cl)c1` [Example 36, (S)-2-Methyl-4-[4-(2-oxa-7-aza-spiro[3.5]non-7-yl)-4-oxo-butyl]-3-oxo-piperazine-1-carboxylic acid (3-chloro-phenyl)-amide], the IC50 came to 2340 nM.

For `C[C@H]1C(=O)N(CCCC(=O)N2CCC(C)(C)[C@H](O)C2)CCN1C(=O)Nc1ccc(Cl)c(Cl)c1` [Example 38, (S)-4-[4-((S)-3-hydroxy-4,4-dimethyl-piperidin-1-yl)-4-oxo-butyl]-2-methyl-3-oxo-piperazine-1-carboxylic acid (3,4-dichloro-phenyl)-amide], the concentration for half-maximal inhibition (IC50) amounted to 21.9 nM.

For `C[C@H]1C(=O)N(CC(O)CC(=O)N2CCC3(CC3)[C@H](O)C2)CCN1C(=O)Nc1ccc(Cl)c(Cl)c1` (stereo partly drawn) [Example 40, (S)-4-[(R,S)-2-Hydroxy-4-((S)-4-hydroxy-6-aza-spiro[2.5]oct-6-yl)-4-oxo-butyl]-2-methyl-3-oxo-piperazine-1-carboxylic acid (3,4-dichloro-phenyl)-amide], the IC50 amounted to 7.6 nM.

With `C[C@H]1C(=O)N(CC(O)CC(=O)N2CCC3(CC3)[C@H](O)C2)CCN1C(=O)Nc1ccc(C(F)(F)F)c(Cl)c1` (stereo partly drawn) [Example 41, (S)-4-[(R,S)-2-Hydroxy-4-((S)-4-hydroxy-6-aza-spiro[2.5]oct-6-yl)-4-oxo-butyl]-2-methyl-3-oxo-piperazine-1-carboxylic acid (3-chloro-4-trifluoromethyl-phenyl)-amide], the IC50 was found to be 5.6 nM.

With `C[C@H]1C(=O)N(C[C@@H](O)CC(=O)N2CCC3(CC3)[C@H](O)C2)CCN1C(=O)Nc1ccc(C(F)(F)F)c(Cl)c1` [Example 42, (S)-4-[(S)-2-Hydroxy-4-((S)-4-hydroxy-6-aza-spiro[2.5]oct-6-yl)-4-oxo-butyl]-2-methyl-3-oxo-piperazine-1-carboxylic acid (3-chloro-4-trifluoromethyl-phenyl)-amide], the IC50 came out at 8.2 nM.

Turning to `C[C@H]1C(=O)N(C[C@H](O)CC(=O)N2CCC3(CC3)[C@H](O)C2)CCN1C(=O)Nc1ccc(C(F)(F)F)c(Cl)c1` [Example 43, (S)-4-[(R)-2-Hydroxy-4-((S)-4-hydroxy-6-aza-spiro[2.5]oct-6-yl)-4-oxo-butyl]-2-methyl-3-oxo-piperazine-1-carboxylic acid (3-chloro-4-trifluoromethyl-phenyl)-amide], the IC50 came out at 4 nM.

For `C[C@H]1C(=O)N(CC(O)CC(=O)N2CCC3(CC3)[C@H](O)C2)CCN1C(=O)Nc1ccc(OC(F)(F)F)c(Cl)c1` (stereo partly drawn) [Example 44, (S)-4-[(R,S)-2-Hydroxy-4-((S)-4-hydroxy-6-aza-spiro[2.5]oct-6-yl)-4-oxo-butyl]-2-methyl-3-oxo-piperazine-1-carboxylic acid (3-chloro-4-trifluoromethoxy-phenyl)-amide], the IC50 worked out at 2.7 nM.

As for `C[C@H]1C(=O)N(C[C@@H](O)CC(=O)N2CCC3(CC3)[C@H](O)C2)CCN1C(=O)Nc1ccc(OC(F)(F)F)c(Cl)c1` [Example 45, (S)-4-[(S)-2-hydroxy-4-((S)-4-hydroxy-6-aza-spiro[2.5]oct-6-yl)-4-oxo-butyl]-2-methyl-3-oxo-piperazine-1-carboxylic acid (3-chloro-4-trifluoromethoxy-phenyl)-amide], the IC50 came out at 2 nM.

As for `C[C@H]1C(=O)N(C[C@H](O)CC(=O)N2CCC3(CC3)[C@H](O)C2)CCN1C(=O)Nc1ccc(OC(F)(F)F)c(Cl)c1` [Example 46, (S)-4-[(R)-2-hydroxy-4-((S)-4-hydroxy-6-aza-spiro[2.5]oct-6-yl)-4-oxo-butyl]-2-methyl-3-oxo-piperazine-1-carboxylic acid (3-chloro-4-trifluoromethoxy-phenyl)-amide], the IC50 was found to be 4.2 nM.

As for `C[C@H]1C(=O)N(CC(O)CC(=O)N2CCC3(CC3)[C@H](O)C2)CCN1C(=O)Nc1ccc(C(F)(F)F)c(C(F)(F)F)c1` (stereo partly drawn) [Example 47, (S)-4-[(R,S)-2-Hydroxy-4-((S)-4-hydroxy-6-aza-spiro[2.5]oct-6-yl)-4-oxo-butyl]-2-methyl-3-oxo-piperazine-1-carboxylic acid (3,4-bis-trifluoromethyl-phenyl)-amide], the IC50 is 5.4 nM.

In the case of `C[C@H]1C(=O)N(C[C@@H](O)CC(=O)N2CCC3(CC3)[C@H](O)C2)CCN1C(=O)Nc1ccc(C(F)(F)F)c(C(F)(F)F)c1` [Example 48, (S)-4-[(S)-2-Hydroxy-4-((S)-4-hydroxy-6-aza-spiro[2.5]oct-6-yl)-4-oxo-butyl]-2-methyl-3-oxo-piperazine-1-carboxylic acid (3,4-bis-trifluoromethyl-phenyl)-amide], the IC50 was determined as 2.4 nM.

On to `C[C@H]1C(=O)N(C[C@H](O)CC(=O)N2CCC3(CC3)[C@H](O)C2)CCN1C(=O)Nc1ccc(C(F)(F)F)c(C(F)(F)F)c1` [Example 49, (S)-4-[(R)-2-hydroxy-4-((S)-4-hydroxy-6-aza-spiro[2.5]oct-6-yl)-4-oxo-butyl]-2-methyl-3-oxo-piperazine-1-carboxylic acid (3,4-bis-trifluoromethyl-phenyl)-amide], for which the IC50 stood at 5.8 nM.

On to `C[C@H]1C(=O)N(CCC(C)(C)C(=O)N2CCC3(CC3)[C@H](O)C2)CCN1C(=O)Nc1ccc(C(F)(F)F)c(Cl)c1` [Example 50, (S)-4-[4-((S)-4-Hydroxy-6-aza-spiro[2.5]oct-6-yl)-3,3-dimethyl-4-oxo-butyl]-2-methyl-3-oxo-piperazine-1-carboxylic acid (3-chloro-4-trifluoromethyl-phenyl)-amide], for which the IC50 is 1140 nM.

Turning to `C[C@H]1C(=O)N(CCC(C)(C)C(=O)N2CCC3(CC3)[C@H](O)C2)CCN1C(=O)Nc1ccc(OC(F)(F)F)c(Cl)c1` [Example 51, (S)-4-[4-((S)-4-Hydroxy-6-aza-spiro[2.5]oct-6-yl)-3,3-dimethyl-4-oxo-butyl]-2-methyl-3-oxo-piperazine-1-carboxylic acid (3-chloro-4-trifluoromethoxy-phenyl)-amide], the IC50 worked out at 750 nM.

By IC50 is commonly meant the point on the concentration scale where inhibition reaches its midpoint.
